# Test: gradient 5% acetonitrile 3 min, to 50% in 2 min, to 85% in 15 min, held 3 min, 100 µL/min
# Conditions: column: Zorbax Extend-C18 2.1 x 50 mm; eluents: water / acetonitrile, 0.1% formic acid
# Method in brief: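 In both positive and negative ionization mode, a quadrupole time-of-flight mass spectrometer coupled to HPLC analyzed pure standards run in mixtures of ~100 molecules. The Zorbax Extend-C18 column (2.1 × 50 mm, 1.8 μm) was operated at 100 μL/min with water and acetonitrile, each containing 0.1% formic acid. The dead volume was 40 μL and the dwell volume 900 μL. Retention time came from adduct peaks that were computationally picked and individually inspected by hand.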
row,SMILES,RP-LC retention time [s]
1,Cc1ccc(-c2ncc(C(=O)Nc3cc(F)cc(F)c3)c(-c3ccncc3)n2)cc1,1060
2,CC(C)OCCCN1C(=O)CN(C2CCCCC2)C(=O)C1c1cccs1 (stereo unspecified),991
3,Cc1cnc(C(=O)N2CCC(F)(F)C(COCC3CC3)C2)cn1 (stereo unspecified),794
4,COc1cccc(C(=O)N2CCC3(CC2)c2nccn2-c2ccccc2CN3C)c1,612
5,CCOc1ccc(-c2cn3ccn(-c4ccc(C(C)C)cc4)c(=O)c3n2)cc1,1030
6,CC1=NS(=O)(=O)N(C)C=C1C(=O)OCc1nc(-c2ccc(Cl)cc2)no1,1010
7,CC(C)CC(=O)N1CCc2c(c(-c3nncn3C(C)C)nn2C)C1,682
8,CCN(CC)C(=O)c1cc2c(s1)CCC(C(=O)NCc1cccnc1)C2 (stereo unspecified),528
9,CCCn1c(=O)c(C)nc2cc(-c3noc(-c4ccc(OC)cc4)n3)ccc21,1160
10,Cc1ccc(-n2c(=O)c3c(cc(C)n3C)n(CC(=O)Nc3cccc(C)c3)c2=O)cc1,905
11,Cc1cc(C)c2sc(N(Cc3cccnc3)C(=O)c3snnc3C)nc2c1,823
12,CCc1nnc(-c2cc(C)n(CC(=O)Nc3ccc(OC)cc3)c2C)o1,753
13,CCc1ccc(NS(=O)(=O)c2cc(-c3cc(C(F)(F)F)on3)sc2C)cc1,1230
14,Cc1ccc(C)c(C(O)Cn2ccn3nc(-c4cccs4)cc3c2=O)c1 (stereo unspecified),915
15,O=c1ccn(-c2cccc(F)c2)nc1-c1nc(-c2ccc(F)cc2)no1,902
16,CCCn1cc(S(=O)(=O)NCc2ccc(C)c(C)c2)c2cccnc21,984
17,Cc1noc(C)c1S(=O)(=O)N1CCC(n2c(C)cnc2-c2ccncc2)C1 (stereo unspecified),616
18,O=S(=O)(c1cc(-c2nnc(C3CC3)o2)co1)N1CCCC1,774
19,COc1ccc(-c2csc(Nc3ccc(S(=O)(=O)Nc4cc(C)on4)cc3)n2)cc1,939
20,O=C(NC1CC1)c1n[nH]c2c1CCCCCC2,719
21,CSc1ccc(-c2nc3cccc(C)n3c2Nc2ccc(Cl)cc2)cc1,788
22,Cc1oc(C2CCN(S(=O)(=O)c3ccc(C(C)C)cc3)CC2)nc1C(=O)N(C)C,966
23,COCCC1CCN(C(=O)CN(C)C(=O)c2ccsc2)CC1,655
24,CCCCNC(=O)Nc1ccccc1CC,870
25,Cc1ccc(NS(=O)(=O)c2ccc(-c3nnc(C4CCC4)o3)o2)c(C)c1,977
26,NC(=O)c1nnsc1-c1ccc(-c2snnc2C(N)=O)cc1,694
27,CCc1ccc(NC(=O)c2cc(C)n3nccc3n2)cc1,1030

# Second part, the compound after the results:
row,RP-LC retention time [s],SMILES
1,618,COc1cn(CC(=O)Nc2ccc(OC(F)(F)F)cc2)c(CO)cc1=O
2,611,O=C(NCc1ccccc1F)C1CCN(c2cncnc2N2CCOCC2)CC1
3,711,O=C(Nc1nnc(C2CC(=O)N(c3ccc(F)cc3)C2)o1)c1ccccc1 (stereo unspecified)
4,673,O=C(NC1CC1)c1ccc(CN2CCN(Cc3ccc(F)cc3)C(=O)C2=O)cc1
5,976,CCCCOC(=O)c1ccc(NC(=O)c2ccc(N3CCCCS3(=O)=O)cc2)cc1
6,885,COc1cccc(C(=O)N2CCCn3nc(-c4ccc(C)cc4)cc3C2)c1OC
7,700,CCC1CCCCN1CCNC(=O)c1sc2cccc(F)c2c1OC (stereo unspecified)
8,922,Cc1cc(N2CCN(S(=O)(=O)c3ccc(Cl)c(Cl)c3)CC2)nc(NC2CCCCC2)n1
9,1020,O=C(NCCCN1CCCc2ccccc21)c1nnc(-c2ccc(S(=O)(=O)N3CCCC3)cc2)o1
10,882,CN1CCCc2cc(C(=O)NCc3ccccc3)sc21
11,806,CC(C)NC(=O)Cn1c(=O)cc(-c2nc(C3CC3)no2)c2ccccc21
12,1060,O=C1NC(=O)c2c(NC(=O)C3(c4ccc(Cl)cc4)CCCC3)cccc21
13,653,O=C(NC1CC1)c1[nH]c2ccccc2c1N1CCCC1=O
14,686,COc1ccccc1N1CCN(C(=O)C2CC(=O)N(c3n[nH]c4cccc(F)c34)C2)CC1 (stereo unspecified)
15,657,COc1ccc(-c2cnn3c(C)cc(C)nc23)cc1S(=O)(=O)NCCN1CCCC(C)C1 (stereo unspecified)
16,863,O=C(CCc1nc2ccccc2s1)NCC12CCCC=C1N(CC1CC1)C(=O)CC2 (stereo unspecified)
17,910,Cc1ccc(CN2CCN(C3CCN(S(=O)(=O)c4cc(F)ccc4F)CC3)C(=O)C2=O)cc1
18,1180,CC1=NS(=O)(=O)N(Cc2ccccc2)C=C1C(=O)OCc1noc(-c2cccc(C)c2)n1
19,718,Cc1cc(=O)n(CC(=O)Nc2ccc(F)cc2Cl)c(N2CCCCC2)n1
20,924,CC1(C)CC(=O)C2=C(C1)Nc1ccccc1N(CC(=O)Nc1cccc(F)c1)C2c1ccco1 (stereo unspecified)

row,RP-LC retention time [s],SMILES
1,623,Cc1ccc(NC(=O)N2CCN(C3=CC4=NCC(C)N4C=N3)CC2)c(C)c1 (stereo unspecified)
2,1020,COc1ccccc1NC(=O)Cn1cccc1-c1nnc(-c2ccccc2)o1
3,619,COc1cccc(N2CCN(Cc3nc4nc(C)cc(N5CCCC5)n4n3)CC2)c1
4,656,Cc1ccc(Nc2nc(N3CCN(CCO)CC3)nc3c2C(=O)CCC3)cc1
5,921,CCS(=O)(=O)N1CCN(Cc2ccc(OC)nc2)CC1
6,893,O=C(COCc1nnc(C(=O)Nc2cccc(F)c2)s1)NCCc1c[nH]c2ccccc12
7,554,COc1ccc(C2C(C(C)=O)=C(O)C(=O)N2CCCN2CCOCC2)c(OC)c1 (stereo unspecified)
8,648,CC(C(=O)NCCCN1CCOCC1)C1CCN(C(=O)c2cc3cc(Cl)ccc3[nH]2)CC1 (stereo unspecified)
9,860,Cc1ccc(-n2nc(N3CCCN(S(=O)(=O)c4ccccc4F)CC3)ccc2=O)cc1
10,804,CC(C)c1ccc(C(C)NC(=O)C2CCN(Cc3cn(C)c4ccccc34)CC2)cc1 (stereo unspecified)
11,1040,Cc1ccccc1N1CCN(c2ncc(C(=O)O)c(C)n2)CC1
12,871,O=C(Nc1ccccc1-c1nc2ccccc2[nH]1)c1ccccc1Cl
13,715,O=C(CCc1c(-c2ccccc2)nc2ccccn12)Nc1ccc(Cl)cc1F
14,1020,CSc1ccc(CNC(=O)Cn2nc(-n3cccc3)c3c(C)cc(C)nc32)cc1
15,854,CC1CCc2nc3ncn(CC(=O)Nc4cccc(Br)c4)c(=O)c3cc2C1 (stereo unspecified)
16,704,COC(=O)Cn1c(C2CC(=O)N(c3ccccc3C)C2)nc2ccccc21 (stereo unspecified)
17,932,CCn1c(=O)sc2cc(S(=O)(=O)N3CCC(C(=O)NCc4cccc(C)c4)CC3)ccc21
18,840,O=C(c1cc(-c2ccccc2)n[nH]1)N1CCN(S(=O)(=O)c2ccc(F)cc2)CC1
19,703,CC(C)CC(NC(=O)c1cccs1)C(=O)Nc1nc2ccccc2[nH]1 (stereo unspecified)
